Reference: BindingDB's records for doi:10.1074/jbc.M113.493767 (Novartis Institute For Tropical Diseases, 2013)
Numbered stars: 1 amine (or outer) side, 2 acyl side, 3 side chain; on linkers, the order of the positions; unused ones are H or OH. Square brackets hold non-standard residues; d marks the D form. Peptide text beside a SMILES is read from it. X1 = CC(C)([C@@H](O)CNCCCN)n1cc([C@@H](O)[C@H](N[*:1])C(=O)[*:2])c2ccccc21; Ala(3R-Me,3-isobutenyl) = CC(C)=C[C@@H](C)[C@H](N)C(=O)O; NMeLeu(5-OH,4R) = CN[C@@H](C[C@@H](C)CO)C(=O)O; Phe(βR-OMe) = CO[C@H](c1ccccc1)[C@H](N)C(=O)O; NMeL = CN[C@@H](CC(C)C)C(=O)O

Target: ATP-dependent Clp protease ATP-binding subunit ClpC1 (Mycobacterium tuberculosis (strain ATCC 25618 / H37Rv), UniProt P9WPC9)
Sequence (P9WPC9 whole entry): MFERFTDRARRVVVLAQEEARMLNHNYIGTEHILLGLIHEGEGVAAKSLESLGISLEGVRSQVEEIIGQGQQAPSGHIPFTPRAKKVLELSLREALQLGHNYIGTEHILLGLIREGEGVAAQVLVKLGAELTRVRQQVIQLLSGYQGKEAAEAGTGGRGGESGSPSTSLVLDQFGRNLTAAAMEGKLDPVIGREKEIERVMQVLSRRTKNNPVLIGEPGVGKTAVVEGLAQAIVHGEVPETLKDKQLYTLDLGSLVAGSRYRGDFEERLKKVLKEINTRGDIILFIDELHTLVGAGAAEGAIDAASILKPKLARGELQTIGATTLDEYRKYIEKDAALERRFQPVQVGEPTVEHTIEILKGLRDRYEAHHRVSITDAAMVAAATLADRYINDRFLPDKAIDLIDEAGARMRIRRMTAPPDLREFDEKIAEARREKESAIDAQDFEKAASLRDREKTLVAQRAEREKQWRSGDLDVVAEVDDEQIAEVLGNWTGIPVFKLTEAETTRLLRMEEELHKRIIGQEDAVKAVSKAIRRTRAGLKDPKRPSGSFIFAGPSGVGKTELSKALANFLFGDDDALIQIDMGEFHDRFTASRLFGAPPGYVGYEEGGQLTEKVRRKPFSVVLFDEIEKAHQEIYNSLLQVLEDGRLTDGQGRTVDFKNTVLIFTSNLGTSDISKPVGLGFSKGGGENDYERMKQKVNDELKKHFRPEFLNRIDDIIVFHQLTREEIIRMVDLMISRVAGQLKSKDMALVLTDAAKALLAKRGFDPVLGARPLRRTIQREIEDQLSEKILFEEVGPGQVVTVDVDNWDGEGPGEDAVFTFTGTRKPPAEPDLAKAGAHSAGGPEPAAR
Experiment: Isothermal Titration Calorimetry (ITC)
Conditions: pH 7.5; 25 °C
Method: Isothermal titration calorimetry experiments were performed using an iTC200 (GEHealthcare) at 25 °C, with 15-20 μM ClpC1 (in 20 mM Tris-HCl, pH 7.5, 300 mM NaCl, 1 mM EDTA, 1 mM Tris(2-carboxyethyl) phosphine, 9% DMSO) in the sample cell. Typically, 19 injections of 2 μl of 150-200 μM CymA1 solution in the same bufferwere injected into the sample cell at 2.5-min intervals.

CO[C@H](c1ccccc1)[C@@H]1NC(=O)[C@H](C)NC(=O)[C@H](C[C@@H](C)CO)N(C)C(=O)[C@H]([C@H](O)c2cn(C(C)(C)[C@@H](O)CNCCCN)c3ccccc23)NC(=O)[C@H]([C@H](C)C=C(C)C)NC(=O)[C@H](CC(C)C)N(C)C(=O)[C@H](C(C)C)NC1=O [Cyclomarin A1 (CymA1)] (cyclo(A[Phe(βR-OMe)]V[NMeL][Ala(3R-Me,3-isobutenyl)][X1][NMeLeu(5-OH,4R)]))
Kd: 17.5 nM
